Results: ChEMBL document CHEMBL1152547, “Synthesis and evaluation of anticancer activity of 2-arylamino-6-trifluoromethyl-3-(hydrazonocarbonyl)pyridines” (Bioorg Med Chem, 2009)

What was measured:
Assay type in all cases: functional
[1] = Cytotoxicity against human NCI60 cells assessed as cell growth at 10 uM after 48 hrs by sulforhodamine B assay; details: NCI60, 48 h, read-out: Activity
[2] = Cytotoxicity against human NCI60 cells after 48 hrs by sulforhodamine B assay; details: NCI60, 48 h; for TGI: read-out: pTGI (converted)
CCRF-CEM = assay: Cytotoxicity against human CCRF-CEM cells after 48 hrs by sulforhodamine B assay
SR = assay: Cytotoxicity against human SR cells after 48 hrs by sulforhodamine B assay
HCT-116 = assay: Cytotoxicity against human HCT116 cells after 48 hrs by sulforhodamine B assay; details: HCT-116, 48 h
786-0 = assay: Cytotoxicity against human 786-0 cells after 48 hrs by sulforhodamine B assay; details: 786-0, 48 h
HOP-62 = assay: Cytotoxicity against human HOP62 cells after 48 hrs by sulforhodamine B assay; details: HOP-62, 48 h
CAKI-1 = assay: Cytotoxicity against human Caki1 cells after 48 hrs by sulforhodamine B assay; details: CAKI-1, 48 h
T47D = assay: Cytotoxicity against human T47D cells after 48 hrs by sulforhodamine B assay
RXF 393 = assay: Cytotoxicity against human RXF393 cells after 48 hrs by sulforhodamine B assay; details: RXF 393, 48 h
HOP-92 = assay: Cytotoxicity against human HOP92 cells after 48 hrs by sulforhodamine B assay; details: HOP-92, 48 h; for TGI: read-out: pTGI (converted)
A498 = assay: Cytotoxicity against human A498 cells after 48 hrs by sulforhodamine B assay; details: A498, 48 h; for CC50: read-out: pLC50 (the source's name) (converted); for TGI: read-out: pTGI (converted)
OVCAR-3 = assay: Cytotoxicity against human OVCAR-3 cells after 48 hrs by sulforhodamine B assay; details: OVCAR-3, 48 h; for CC50: read-out: pLC50 (the source's name) (converted); for TGI: read-out: pTGI (converted)
[3] = read-out: pLC50 (the source's name) (converted)

Row | SMILES | growth at 10 µM [1] | TGI [2] | also measured
1 | COc1ccc(Cl)cc1Nc1nc(C(F)(F)F)ccc1C(=O)N/N=C/c1cccc(O)c1 | 59.1% | – | –
2 | COc1ccc(Cl)cc1Nc1nc(C(F)(F)F)ccc1C(=O)N/N=C/c1ccc([N+](=O)[O-])cc1 | 0.92% | 8.71 µM | –
3 | COc1ccc(Cl)cc1Nc1nc(C(F)(F)F)ccc1C(=O)N/N=C/c1ccc(N(C)C)cc1 | 95.6% | – | –
4 | COc1ccc(Cl)cc1Nc1nc(C(F)(F)F)ccc1C(=O)N/N=C/c1cc(OC)c(OC)c(OC)c1 | 17.6% | 10.5 µM | –
5 | Cc1cc(Cl)ccc1Nc1nc(C(F)(F)F)ccc1C(=O)N/N=C/c1ccc([N+](=O)[O-])cc1 | -7.22% | 4.68 µM | GI50 (CCRF-CEM): 42.7 nM; TGI (CCRF-CEM; read-out: pTGI (converted)): 77.6 nM
6 | Cc1ccc(Cl)cc1Nc1nc(C(F)(F)F)ccc1C(=O)N/N=C/c1c(Cl)cccc1Cl | -3.82% | 6.17 µM | GI50 (SR): 56.2 nM; CC50 (SR; [3]): 41.7 µM; TGI (SR; read-out: pTGI (converted)): 2690 nM; GI50 (HCT-116): 214 nM; CC50 (HCT-116; [3]): 3.31 µM; TGI (HCT-116; read-out: pTGI (converted)): 490 nM; GI50 (786-0): 251 nM; CC50 (786-0; [3]): 3.02 µM; TGI (786-0; read-out: pTGI (converted)): 603 nM; GI50 (HOP-62): 251 nM; CC50 (HOP-62; [3]): 5.75 µM; TGI (HOP-62; read-out: pTGI (converted)): 776 nM
7 | COc1ccc(Cl)cc1Nc1nc(C(F)(F)F)ccc1C(=O)N/N=C/c1ccc(F)cc1 | 36.5% | – | –
8 | O=C(N/N=C/c1ccc(Cl)cc1Cl)c1ccc(C(F)(F)F)nc1Nc1cccc(C(F)(F)F)c1 | 66.3% | – | –
9 | O=C(N/N=C/c1ccc([N+](=O)[O-])cc1)c1ccc(C(F)(F)F)nc1Nc1cccc(C(F)(F)F)c1 | 95.2% | – | –
10 | Cc1ccc(Cl)cc1Nc1nc(C(F)(F)F)ccc1C(=O)N/N=C/c1ccc(Cl)cc1 | 0.47% | 5.25 µM | GI50 [2]: 1480 nM
11 | O=C(N/N=C/c1ccccc1Cl)c1ccc(C(F)(F)F)nc1Nc1cccc(C(F)(F)F)c1 | 34.2% | – | –
12 | O=C(N/N=C/c1c(Cl)cccc1Cl)c1cccnc1Nc1cccc(C(F)(F)F)c1 | 37.8% | 39.8 µM | –
13 | O=C(N/N=C/c1ccc(F)cc1)c1ccc(C(F)(F)F)nc1Nc1cccc(C(F)(F)F)c1 | 7.73% | 4.47 µM | –
14 | Cc1cc(Cl)ccc1Nc1nc(C(F)(F)F)ccc1C(=O)N/N=C/c1ccc(Cl)cc1Cl | 60.1% | – | –
15 | CN(C)c1ccc(/C=N/NC(=O)c2ccc(C(F)(F)F)nc2Nc2cccc(C(F)(F)F)c2)cc1 | 60.2% | – | –
16 | Cc1cc(Cl)ccc1Nc1nc(C(F)(F)F)ccc1C(=O)N/N=C/c1cccc(O)c1 | 27.1% | 11 µM | GI50 (CAKI-1): 17 nM; CC50 (CAKI-1; [3]): 24 µM; TGI (CAKI-1; read-out: pTGI (converted)): 3.31 µM; GI50 (T47D): 35.5 nM; CC50 (T47D; [3]): 21.4 µM; TGI (T47D; read-out: pTGI (converted)): 2140 nM; GI50 (RXF 393): 195 nM; TGI (RXF 393; read-out: pTGI (converted)): 11.2 µM
17 | Cc1cc(Cl)ccc1Nc1nc(C(F)(F)F)ccc1C(=O)N/N=C/c1ccc(F)cc1 | 6.66% | 7.08 µM | –
18 | COc1cc(/C=N/NC(=O)c2ccc(C(F)(F)F)nc2Nc2ccc(Cl)cc2C)ccc1O | 26.8% | 10.5 µM | –
19 | Cc1ccc(Cl)cc1Nc1nc(C(F)(F)F)ccc1C(=O)N/N=C/c1ccncc1 | 67.9% | – | –
20 | Cc1cc(Cl)ccc1Nc1nc(C(F)(F)F)ccc1C(=O)N/N=C/c1ccc(Cl)cc1 | -7.31% | 7.59 µM | –
21 | O=C(N/N=C/c1ccncc1)c1ccc(C(F)(F)F)nc1Nc1cccc(C(F)(F)F)c1 | 10.8% | 8.71 µM | –
22 | Cc1ccc(Cl)cc1Nc1nc(C(F)(F)F)ccc1C(=O)N/N=C/c1cccnc1 | 20.9% | 12.6 µM | GI50 (SR): 97.7 nM
23 | Cc1cc(Cl)ccc1Nc1nc(C(F)(F)F)ccc1C(=O)N/N=C/c1ccncc1 | 54.2% | – | –
24 | Cc1cc(Cl)ccc1Nc1nc(C(F)(F)F)ccc1C(=O)N/N=C/c1ccc(N(C)C)cc1 | 23.2% | 66.1 µM | GI50 [2]: 1700 nM
25 | O=C(N/N=C/c1ccc(Cl)cc1)c1ccc(C(F)(F)F)nc1Nc1cccc(C(F)(F)F)c1 | 9.64% | 6.61 µM | GI50 (HOP-92): 43.6 nM; CC50 (HOP-92; [3]): 20.9 µM; TGI (HOP-92): 589 nM

Row | SMILES | growth at 10 µM [1] | TGI [2] | also measured
26 | O=C(N/N=C/c1c(Cl)cccc1Cl)c1ccccc1Nc1cccc(C(F)(F)F)c1 | 90.6% | – | –
27 | Cc1ccc(Cl)cc1Nc1nc(C(F)(F)F)ccc1C(=O)N/N=C/c1cccc(O)c1 | 90.1% | – | –
28 | Cc1ccc(Cl)cc1Nc1nc(C(F)(F)F)ccc1C(=O)N/N=C/c1ccc(Cl)cc1Cl | 62.6% | – | –
29 | Nc1nc(C(F)(F)F)ccc1C(=O)N/N=C/c1c(Cl)cccc1Cl | 102% | – | –
30 | O=C(N/N=C/c1cccnc1)c1ccc(C(F)(F)F)nc1Nc1cccc(C(F)(F)F)c1 | 70.3% | – | –
31 | Cc1cc(Cl)ccc1Nc1nc(C(F)(F)F)ccc1C(=O)N/N=C/c1cccnc1 | 47.2% | – | –
32 | Cc1cc(Cl)ccc1Nc1nc(C(F)(F)F)ccc1C(=O)NCC(=O)N/N=C/c1c(Cl)cccc1Cl | 68.1% | – | –
33 | COc1cc(/C=N/NC(=O)c2ccc(C(F)(F)F)nc2Nc2cc(Cl)ccc2C)cc(OC)c1OC | 94% | – | –
34 | COc1cc(/C=N/NC(=O)c2ccc(C(F)(F)F)nc2Nc2cc(Cl)ccc2OC)ccc1O | 42.1% | – | –
35 | COc1cc(/C=N/NC(=O)c2ccc(C(F)(F)F)nc2Nc2ccc(Cl)cc2C)cc(OC)c1OC | 32.3% | – | –
36 | O=C(N/N=C/c1cccc(O)c1)c1ccc(C(F)(F)F)nc1Nc1cccc(C(F)(F)F)c1 | 103% | – | –
37 | Cc1ccc(Cl)cc1Nc1nc(C(F)(F)F)ccc1C(=O)N/N=C/c1ccc(N(C)C)cc1 | 52.1% | – | –
38 | COc1ccc(Cl)cc1Nc1nc(C(F)(F)F)ccc1C(=O)N/N=C/c1cccnc1 | 44.7% | 79.4 µM | GI50 [2]: 2950 nM
39 | COc1cc(/C=N/NC(=O)c2ccc(C(F)(F)F)nc2Nc2cccc(C(F)(F)F)c2)ccc1O | 50.1% | – | –
40 | COc1ccc(Cl)cc1Nc1nc(C(F)(F)F)ccc1C(=O)N/N=C/c1ccc(Cl)cc1Cl | 72.1% | – | –
41 | Cc1cc(Cl)ccc1Nc1nc(C(F)(F)F)ccc1C(=O)N/N=C/c1ccccc1Cl | 14.8% | 5.13 µM | GI50 (A498): < 10 nM; CC50 (A498): 17.8 µM; TGI (A498): 2690 nM; GI50 (OVCAR-3): 191 nM; CC50 (OVCAR-3): 8.32 µM; TGI (OVCAR-3): 513 nM
42 | COc1cc(/C=N/NC(=O)c2ccc(C(F)(F)F)nc2Nc2cc(Cl)ccc2C)ccc1O | 47.2% | – | –
43 | COc1ccc(Cl)cc1Nc1nc(C(F)(F)F)ccc1C(=O)N/N=C/c1ccncc1 | 62.5% | – | –
44 | Cc1ccc(Cl)cc1Nc1nc(C(F)(F)F)ccc1C(=O)N/N=C/c1ccccc1Cl | 36.2% | – | –
45 | COc1cc(/C=N/NC(=O)c2ccc(C(F)(F)F)nc2Nc2cccc(C(F)(F)F)c2)cc(OC)c1OC | 44.5% | – | –
46 | Cc1ccc(Cl)cc1Nc1nc(C(F)(F)F)ccc1C(=O)N/N=C/c1ccc(F)cc1 | 33% | – | –
47 | O=C(N/N=C/c1c(Cl)cccc1Cl)c1ccc(C(F)(F)F)nc1Nc1cccc(C(F)(F)F)c1 | 5.01% | 10.2 µM | GI50 (HOP-92): 44.7 nM; TGI (HOP-92): 417 nM; GI50 (A498): 191 nM; CC50 (A498): 9.33 µM; TGI (A498): 646 nM; GI50 (OVCAR-3): 191 nM; CC50 (OVCAR-3): 77.6 µM; TGI (OVCAR-3): 646 nM
48 | Cc1ccc(Cl)cc1Nc1nc(C(F)(F)F)ccc1C(=O)N/N=C/c1ccc([N+](=O)[O-])cc1 | 85.7% | – | –
49 | O=C(O)CCCc1ccc(N(CCCl)CCCl)cc1 [CHLORAMBUCIL] | – | 35.5 µM | –
